Results from US6271220A, “Anti-angiogenic agents” (Allergan Sales, Inc., priority 1999, dated 2001).

Tested on: Purified bovine brain tubulin
Test: in vitro tubulin polymerization assay (turbidimetric)
Format: biochemical
Conditions: GTP-initiated, 30 C, turbidity monitored for 15 minutes, read-out: 1C50, inhibitory effects on tubulin polymerization in vitro
Protocol: Anti-mitotic activity can be evaluated by testing the ability of a compound of the invention to inhibit tubulin polymerization and microtubule assembly in vitro. The tubulin/microtubule system is instrumental in the formation in the mitotic spindle, making it a prime target for anti-mitotic agents. In vitro tubulin polymerization assays are performed to serve as an estimate of the in vivo cytotoxic activity of designated compounds. Purified bovine brain tubulin (120 μl, 4 mg/ml), 240 μl PME (100 mm piperazine-n, n-bis(2-ethane-sulfonic acid i.e., pipes, ph 6.9, 1 mm MgSO4, 2 mm ethyleneglycol-bis-(β-aminoethyl ether) N, N, N', N'-tetraacetic acid i.e. EGTA and 40 μl dimethyl sulfoxide i.e. DMSO, are combined and transferred to a 1 ml quartz cuvet. Polymerization is initiated by the addition of guanosine triphosphate i.e. GTP, (8 μl, 50 mM) and monitored turbidometrically in a Varian DMS 90 UV-Vis spectrophotometer in a temperature controlled cuvet holder at 30_C. Tubidity increases with increasing tubulin polymerization, giving a false absorbence reading and, over time, a polymerization curve. […] 200 μM solutions (in DMSO) of compounds to be assayed were prepared, and substituted for portions of the DMSO in the polymerization mixture.
The method is given above in-vitro assay for anti-miotic activity.

Row | IC50 [µM] | Compound
1 | 7.2 | C[C@]12CC[C@@H]3c4cccc(=O)cc4CC[C@H]3[C@@H]1CC[C@@H]2O [Compound 3, A-Homo-1(10), 2,4a-estratrien-17β-ol-4-one]
2 | 4.4 | C[C@]12CC[C@@H]3c4ccc(=O)ccc4CC[C@H]3[C@@H]1CC[C@@H]2O [Compound 6, A-Homo-1,4,5(10)-estratrien-17β-ol-3-one]
3 | 2.9 | C[C@]12CC[C@@H]3c4ccc(Br)c(=O)cc4CC[C@H]3[C@@H]1CC[C@@H]2O [Compound 8a, 3-Bromo-A-Homo-1(10), 2,4a-estratrien-17β-ol-4-one]
4 | 2.8 | C[C@]12CC[C@@H]3c4ccc(Cl)c(=O)cc4CC[C@H]3[C@@H]1CC[C@@H]2O [Compound 8b, 3-Chloro -A-Homo-1(10), 2,4a-estratrien-17β ol-4-one]
5 | 8.1 | COc1ccc2c(cc1=O)CC[C@@H]1[C@@H]2CC[C@]2(C)[C@@H](O)CC[C@@H]12 [Compound 8c, 3-Methoxy-A-Homo-1(10), 2,4a-estratrien-17β-ol-4-one]
6 | 5.9 | CCOc1cc2c(ccc1=O)[C@H]1CC[C@]3(C)[C@@H](O)CC[C@H]3[C@@H]1CC2 [Compound 11d, 3-Ethoxy-A-Homo-1,4,5(10)-estratrien-17β-ol-3-one]
7 | 27.5 | COc1ccc2c(cc1=O)[C@H]1CC[C@]3(C)[C@@H](O)CC[C@H]3[C@@H]1CC2 [Compound 12, 3-Methoxy-A-Homo-1(10), 3,4a-estratrien-17β-ol-2-one]
8 | 29.8 | COc1cc2c(ccc1=O)CC[C@@H]1[C@@H]2CC[C@]2(C)[C@@H](O)CC[C@@H]12 [Compound 13, 2-Methoxy-A-Homo-1,4,5(10)-estratrien-17β-ol-3-one]
9 | 14.4 | C[C@]12CC[C@@H]3c4ccc(N)c(=O)cc4CC[C@H]3[C@@H]1CC[C@@H]2O [Compound 14, 3-Amino-A-homo-1(10), 2,4a-estratrien-17β-ol-4-one]
10 | 16.5 | C[C@]12CC[C@@H]3c4cc(N)c(=O)ccc4CC[C@H]3[C@@H]1CC[C@@H]2O [Compound 15a, 2-Amino-A-homo-1,4,5(10)-estratrien-17β-ol-3-one]
11 | 9.2 | C[C@]12CC[C@@H]3c4ccc(=O)c(N)cc4CC[C@H]3[C@@H]1CC[C@@H]2O [Compound 15b, 4-Amino-A-homo-1,4,5(10)-estratrien-17β-ol-3-one]
12 | 14.9 | C[C@]12CC[C@@H]3c4cc(O)c(=O)ccc4CC[C@H]3[C@@H]1CC[C@@H]2O [Compound 16a, A-homo-1,4,5(10)-estratrien-2, 17β-diol-3-one]
13 | 22.8 | C[C@]12CC[C@@H]3c4ccc(O)c(=O)cc4CC[C@H]3[C@@H]1CC[C@@H]2O [Compound 16b, A-homo-1(10), 2,4a-estratrien-3,17β-diol-3-one]
14 | 52 | C[C@]12CC[C@@H]3c4ccc([N+](=O)[O-])c(=O)cc4CC[C@H]3[C@@H]1CC[C@@H]2O [Compound 17a, 3-Nitro-A-homo-1(10), 2,4a-estratrien-17β-ol-4-one]
15 | 14.2 | C=Cc1ccc2c(cc1=O)CC[C@@H]1[C@@H]2CC[C@]2(C)[C@@H](O)CC[C@@H]12 [Compound 18, 3-Vinyl-A-homo-1(10), 2,4a-estratrien-17β-ol-4-one]
16 | 60.7 | CNc1ccc2c(cc1=O)CC[C@@H]1[C@@H]2CC[C@]2(C)[C@@H](O)CC[C@@H]12 [Compound 19a, 3-Methylamino-A-homo-1(10), 2,4a-estratrien-17β-ol-4-one]
17 | 14.3 | CN(C)c1ccc2c(cc1=O)CC[C@@H]1[C@@H]2CC[C@]2(C)[C@@H](O)CC[C@@H]12 [Compound 19b, 3-Dimethylamino-A-homo-1(10), 2,4a-estratrien-17β-ol-4-one]
18 | 19.4 | CNc1cc2c(ccc1=O)[C@H]1CC[C@]3(C)[C@@H](O)CC[C@H]3[C@@H]1CC2 [Compound 19c, 4-Methylamino-A-homo-1,4,5(10)-estratrien-17β-ol-3-one]
19 | 46.8 | CN(C)c1cc2c(ccc1=O)[C@H]1CC[C@]3(C)[C@@H](O)CC[C@H]3[C@@H]1CC2 [Compound 19d, 4-Dimethylamino-A-homo-1,4,5(10)-estratrien-17β-ol-3-one]

Row | Compound | IC50 [µM]
20 | 4 Chloro-A-Homo-4,5(10)-estradien-2,17β-diol-3-one [Compound 11b] | 9.8
21 | COc1cc2c(ccc1=O)[C@H]1CC[C@]3(C)[C@@H](O)CC[C@H]3[C@@H]1CC2 [Compound 11c, 4-Methoxy-A-Homo-1,4,5(10)-estratrien-17β-ol-3-one] | 2.1
